Results published in ChEMBL document CHEMBL4052775, “Design, synthesis and in vitro anti-mycobacterial evaluation of gatifloxacin-1H-1,2,3-triazole-isatin hybrids” (Bioorg Med Chem Lett, 2017).
Values after ≈ are worked out from the molar mass of the structure shown.

Key:
[1] = test system: Mycobacterium tuberculosis; test: Antimycobacterial activity against Mycobacterium tuberculosis H37Rv ATCC 27294 by two fold dilution method; type: functional
[2] = Cytotoxicity against African green monkey Vero cells assessed as reduction in cell viability after 72 hrs by MTT assay; type: cell-based; conditions: chlorocebus sabaeus
[3] = Selectivity index, ratio of CC50 for African green monkey Vero cells to MIC for Mycobacterium tuberculosis H37Rv ATCC 27294; type: toxicity; conditions: read-out: Selectivity Index

Structure (SMILES): CO[C@H]1/C=C/O[C@@]2(C)Oc3c(C)c(O)c4c(O)c(c(/C=N/N5CCN(C)CC5)c(O)c4c3C2=O)NC(=O)/C(C)=C\C=C\[C@H](C)[C@H](O)[C@@H](C)[C@@H](O)[C@@H](C)[C@H](OC(C)=O)[C@@H]1C [RIFAMPIN]
- MIC [1]: 0.39 µg/mL (≈ 0.474 µM)
- CC50 at 72 h [2]: 500 µg/mL (≈ 608 µM)

Structure (SMILES): COc1c(N2CCNC(C)C2)c(F)cc2c(=O)c(C(=O)O)cn(C3CC3)c12 (configuration not stated) [GATIFLOXACIN]
- MIC [1]: 0.78 µg/mL (≈ 2.08 µM)
- CC50 at 72 h [2]: 125 µg/mL (≈ 333 µM)
- selectivity ratio [3]: 160

Structure (SMILES): NNC(=O)c1ccncc1 [ISONIAZID]
- MIC [1]: 0.05 µg/mL (≈ 0.365 µM)
- CC50 at 72 h [2]: 125 µg/mL (≈ 911 µM)
